Experimental data published in US11613750B2, “Methods of reducing virus molecule levels” (priority 2019, dated 2023).

Assays:
RPLP2 mRNA = assay: Target mRNA reduction by RT-qPCR in HepG2.2.15 cells; type: cell-based, human; details: 10 nM siRNA
Text: The siRNAs identified as described in Example A6 should function by a mechanism that includes being loaded in the RISC complex to cleave the cognate mRNA, leading to the degradation of the mRNA. To examine whether the siRNAs are effective in reducing the target mRNA, we used reverse transcription coupled with quantitative polymerase chain reaction (RT-qPCR) to assess the level of the target mRNA in HepG2.2.15 cells. All 32 siRNAs described in Table 2 reduced the mRNA by more than 75% (Table 3).

HBsAg = details: read-out: EC50, Extracell. HBsAg reduction; HepG2.2.15 cells
Experimental: (§1) Cell viability was assessed by ATP levels determined using the CellTiter-Glo reagent and the results normalized to the level in mock-treated cells. HBsAg levels were quantified using ELISA and the data normalized to the level in the mock-treated cells.
The cellular proteins GRP78/BIP, SRSF1, HNRNPA2B1, RPLP1, and RPLP2 were identified as having roles in HBV replication and infection. Various siRNAs and combinations thereof targeting the RNAs encoding these proteins were contacted with HepG2.2.15 cells at a final concentration of 7.5 nM.
The EC50 values of several siRNAs and combinations of siRNAs targeting HNRNPA2B1, GRP78, RPLP1, RPLP2, and/or SRSF1 were determined with respect to the ability to reduce HBsAg levels in HepG2.2.15 cells.
(§2) The ability of siRNAs targeting host factors that then results in the reduced production of multiple HBV molecules was evaluated by quantifying the amount of HBsAg, HBeAg, and Core protein produced by HepG2.2.15 cells after contacting with 10 nM of siRNAs that target HNRNPA2B1, GRP78, RPLP1, RPLP2, and SRSF1. We also contacted the cells with 5 nM of each set of siRNAs that targets both RPLP1 and RPLP2. The level of HBsAg, HBeAg, and Core were all determined using ELISAs.
(§3) The library of siRNAs of Example A5 were tested for the reduction of HBsAg secreted by HepG2.2.15 cells and in HBV virions.

RPLP2 protein = assay: Target protein reduction by Western blot in HepG2.2.15 cells; type: cell-based, human; details: 10 nM siRNA, 72 h
Experimental: The host factors likely function in viral infection as proteins. Therefore, we determined whether the siRNAs could decrease the amounts of the target protein. Cell transfected with 10 nM of each siRNA for 72 h were lysed and the target proteins identified using Western blots probed with target-specific antibodies. The effective siRNAs described in Table 3 reduced the levels of the proteins by between 28 and 92% of the mock-treated samples. The reduction in the proteins is less than the reduction of the target mRNA, likely due to the proteins have prolonged half-life and that more time is needed for their degradation. […] We reason that this is due to RPLP1 and RPLP2 functioning as heterodimers such that a decrease of one protein increases the vulnerability of the other protein to degradation. Similar concomitant decrease of the proteins was reported by Campos et al. (17). Finally, the levels of two cellular proteins that are not targeted by the siRNAs, P54nrb and GAPDH, were unaffected.

HBeAg = details: 10 nM siRNA transfected into cells
Experimental: HBeAg in the cell culture media was assessed using ELISAs.
as §2, §3

HCoV-OC43 = assay: OC43 virion RNA, Branched DNA assay, infected HCT8 cells; type: cell-based, human coronavirus OC43; details: for OC43 vRNA reduction siRNA and siGRP78: 10 nM siRNA along with 10 nM of siRNA targeting GRP78, HCT8 cells
Experimental: The siRNAs were transfected in the HCT8 cells at a final concentration of 10 nM. A positive control for the inhibition of Coronavirus infection, Remdesivir (Rem), was used at 0.9 μM. The virion RNAs (vRNAs) were quantified using a Branched DNA assay specific for OC43 RNA.
The two siRNAs are those referred to by compound number (see Table 2) in the horizontal bar, along with siRNA targeting GRP78, siGRP78. A positive control for the inhibition of Coronavirus infection, Remdesivir (Rem), was used at 0.9 μM. The vRNAs were quantified using a Branched DNA assay specific for OC43 RNA.
The siRNAs listed in Table 2 were transfected into human colon epithelial HCT8 cells and the amount of OC43 virion produced was quantified. In these assays, the OC43 vRNA was quantified using a Branched DNA assay (QuantiGene gene expression assay: ThermoFisher). As a positive inhibitory control, the infected cells were treated with Remdesivir. […] Examples of the inhibition of OC43 vRNA are illustrated in FIG. 5A.
A combination of siRNAs targeting the host factor should more robustly reduce OC43 virion production. To illustrate this, HCT8 cells were transfected with 10 nM of siRNAs from Table 2 along with 10 nM of siRNA targeting GRP78. The virion RNAs produced were quantified using the Branched DNA assay. […] A combination of siRNAs targeting host factors GRP78, SRSF1, RPLP1 and RPLP2 can lead to significant reduction in the production of human Coronavirus virion RNA from infected cells.

HepG2.2.15 cells = assay: HepG2.2.15 cell viability, CellTiter-Glo; details: read-out: CC50, HepG2.2.15 cell viability; highest concentration tested 80 nM
Experimental: as §1
The effects on cell viability were quantified using the CellTiter-Glo reagent. All data were normalized to the amount of protein produced by mock-treated cells.
as §3

Row | Substance | Target RNA reduction in HepG2.2.15 cells (RPLP2 mRNA) [%] | EC50 (HBsAg) [pM] | Target protein reduction in HepG2.2.15 cells (RPLP2 protein) [%] | HBeAg reduction HepG2.2.15 cells (HBeAg) [%] | OC43 vRNA reduction siRNA and siGRP78 (HCoV-OC43) [%] | OC43 vRNA reduction (HCoV-OC43; 10 nM siRNA, HCT8 cells) [%] | CC50 (HepG2.2.15 cells) [pM]
1 | 43 (GUAUCGAGGCGGACGACGACCUUGGUCGUCGUCCGCCUCGAUACUU; siRNA; Self-complementary hairpin strand, chemistry not given here, further chemistry not given here; listed as Homo sapiens) [compound 43] | 94 ± 2 | 182 | 45 ± 4 | 70 ± 5 | 92 ± 2 | 94 ± 1 | > 80000
2 | 44 (UGAGCUGAAUGGAAAAAACAUUUAUGUUUUUUCCAUUCAGCUCAUU; siRNA; Self-complementary hairpin strand, chemistry not given here, further chemistry not given here; listed as Homo sapiens) [compound 44] | 99 ± 1 | 84 | 59 ± 11 | 30 ± 4 | 92 ± 2 |  | > 80000
3 | 45 (GGAAAAAACAUUGAAGACGUCUUGACGUCUUCAAUGUUUUUUCCUU; siRNA; Self-complementary hairpin strand, chemistry not given here, further chemistry not given here; listed as Homo sapiens) [compound 45] | 98 ± 1 | 13 | 61 ± 7 | 42 ± 5 | 89 ± 2 |  | > 80000
4 | 46 (GAAAGAUGAGAAGAAGGAGGAUUUCCUCCUUCUUCUCAUCUUUCUU; siRNA; Self-complementary hairpin strand, chemistry not given here, further chemistry not given here; listed as Homo sapiens) [compound 46] | 98 ± 1 | 1100 | 56 ± 8 | 44 ± 5 | 87 ± 4 |  | > 80000
5 | 47 (UGGCCUUUUUGAUUAAAUUTTAAUUUAAUCAAAAAGGCCAAA; siRNA; Self-complementary hairpin strand, chemistry not given here, further chemistry not given here; listed as Homo sapiens) [compound 47] | 97 ± 3 | 70 | 67 ± 5 | 38 ± 5 | 89 ± 2 |  | > 80000
6 | 48 (GCGCCAAGGACAUCAAGAATTUUCUUGAUGUCCUUGGCGCAA; siRNA; Self-complementary hairpin strand, chemistry not given here, further chemistry not given here; listed as Homo sapiens) [compound 48] | 97 ± 0 | 100 | 54 ± 8 | 32 ± 5 | 88 ± 5 |  | > 80000
7 | 49 (AAACAUUGAAGACGUCAUUTTAAUGACGUCUUCAAUGUUUTT; siRNA; Self-complementary hairpin strand, chemistry not given here, further chemistry not given here; listed as Homo sapiens) [compound 49] | 98 ± 1 | 26 | 59 ± 4 | 32 ± 6 | 91 ± 3 |  | > 80000
8 | 50 (CGACCGGCUCAACAAGGUUTTAACCUUGUUGAGCCGGUCGTC; siRNA; Self-complementary hairpin strand, chemistry not given here, further chemistry not given here; listed as Homo sapiens) [compound 50] | 98 ± 1 | 95 | 48 ± 2 | 42 ± 5 | 91 ± 2 |  | > 80000
9 | 51 (GAAGAUCUUGGACAGCGUGTTCACGCUGUCCAAGAUCUUCTT; siRNA; Self-complementary hairpin strand, chemistry not given here, further chemistry not given here; listed as Homo sapiens) [compound 51] | 98 ± 0 | 100 | 56 ± 5 | 32 ± 4 | 90 ± 2 |  | > 80000
10 | 52 (CAAGGUUAUCAGUGUGCUGTTCAGCACACUGAUAACCUUGTT; siRNA; Self-complementary hairpin strand, chemistry not given here, further chemistry not given here; listed as Homo sapiens) [compound 52] | 98 ± 1 | 60 | 58 ± 1 | 54 ± 5 | 91 ± 2 |  | > 80000
